This is an account of results in ChEMBL document CHEMBL1681767, “Design and synthesis of tricyclic tetrahydroquinolines as a new series of nonsteroidal selective androgen receptor modulators (SARMs)” (Bioorg Med Chem Lett, 2011).

pIC50: −log10 of the molar value. Active and inactive are the calls of the source. The rule behind the calls is not given here. Some results are limits rather than exact numbers.

The target of one assay is T1, Progesterone receptor (Oryctolagus cuniculus, UniProt P06186).
T1 sequence (P06186 whole entry): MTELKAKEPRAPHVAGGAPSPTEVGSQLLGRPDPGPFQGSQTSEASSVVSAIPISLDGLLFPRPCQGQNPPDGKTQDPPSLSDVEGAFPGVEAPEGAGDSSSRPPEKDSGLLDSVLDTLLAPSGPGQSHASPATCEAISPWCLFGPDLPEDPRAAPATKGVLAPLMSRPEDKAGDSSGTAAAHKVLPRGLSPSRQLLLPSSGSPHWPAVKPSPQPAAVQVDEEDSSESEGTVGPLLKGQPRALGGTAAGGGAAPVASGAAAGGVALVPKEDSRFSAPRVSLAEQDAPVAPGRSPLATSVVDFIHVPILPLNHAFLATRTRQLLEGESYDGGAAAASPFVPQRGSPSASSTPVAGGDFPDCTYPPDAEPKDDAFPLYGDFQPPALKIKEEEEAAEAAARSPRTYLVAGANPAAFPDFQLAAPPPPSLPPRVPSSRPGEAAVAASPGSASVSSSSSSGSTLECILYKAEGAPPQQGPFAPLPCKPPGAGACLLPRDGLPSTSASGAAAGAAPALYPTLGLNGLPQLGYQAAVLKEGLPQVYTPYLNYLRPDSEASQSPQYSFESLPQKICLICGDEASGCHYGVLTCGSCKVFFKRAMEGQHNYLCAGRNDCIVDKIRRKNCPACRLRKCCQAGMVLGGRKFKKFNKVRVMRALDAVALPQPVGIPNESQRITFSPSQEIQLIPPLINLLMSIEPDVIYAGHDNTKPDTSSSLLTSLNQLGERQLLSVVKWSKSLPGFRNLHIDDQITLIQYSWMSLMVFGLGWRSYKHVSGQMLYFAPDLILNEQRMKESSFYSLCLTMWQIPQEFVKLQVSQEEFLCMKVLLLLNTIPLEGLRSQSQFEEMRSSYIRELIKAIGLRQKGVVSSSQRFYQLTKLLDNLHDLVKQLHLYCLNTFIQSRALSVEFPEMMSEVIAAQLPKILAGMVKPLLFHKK
Put plainly: Displacement of [3H]progesterone from rabbit PR by liquid scintillation counting. Background: Displacement assays read how much labelled ligand stays bound in the presence of the test substance.

Assay [1] in a line: Displacement of [3H]17-beta-estradiol from rabbit ER by liquid scintillation counting. On the set-up: species or system Oryctolagus cuniculus.
For another assay, the target named is T2, Glucocorticoid receptor (Rattus norvegicus, UniProt P06536).
T2 sequence (P06536 whole entry): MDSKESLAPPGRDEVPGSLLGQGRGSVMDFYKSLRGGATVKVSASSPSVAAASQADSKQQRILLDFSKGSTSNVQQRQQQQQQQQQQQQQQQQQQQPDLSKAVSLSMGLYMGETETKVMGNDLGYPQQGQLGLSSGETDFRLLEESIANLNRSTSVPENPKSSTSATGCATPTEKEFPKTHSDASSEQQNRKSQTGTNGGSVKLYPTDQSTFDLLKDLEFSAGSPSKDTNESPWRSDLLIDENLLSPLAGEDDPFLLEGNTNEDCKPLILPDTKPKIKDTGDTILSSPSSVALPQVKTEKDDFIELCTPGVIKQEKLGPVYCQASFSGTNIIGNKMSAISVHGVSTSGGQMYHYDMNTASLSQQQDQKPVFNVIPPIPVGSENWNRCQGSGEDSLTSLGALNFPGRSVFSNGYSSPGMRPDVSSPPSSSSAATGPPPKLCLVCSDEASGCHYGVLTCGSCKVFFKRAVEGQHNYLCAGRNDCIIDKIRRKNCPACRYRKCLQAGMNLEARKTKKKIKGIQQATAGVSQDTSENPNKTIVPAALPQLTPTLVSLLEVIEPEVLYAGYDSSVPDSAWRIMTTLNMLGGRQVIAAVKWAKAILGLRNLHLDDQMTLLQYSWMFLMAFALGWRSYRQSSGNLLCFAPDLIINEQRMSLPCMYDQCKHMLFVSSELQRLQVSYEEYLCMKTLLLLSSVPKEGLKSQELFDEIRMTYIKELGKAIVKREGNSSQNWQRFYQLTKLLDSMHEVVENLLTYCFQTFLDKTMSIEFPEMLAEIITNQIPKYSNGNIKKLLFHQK
Put plainly: Displacement of [3H]dexamethasone from Sprague-Dawley rat GR by liquid scintillation counting.

The target of assay [2] is T3, Mineralocorticoid receptor (Rattus norvegicus, UniProt P22199).
T3 sequence (P22199 whole entry): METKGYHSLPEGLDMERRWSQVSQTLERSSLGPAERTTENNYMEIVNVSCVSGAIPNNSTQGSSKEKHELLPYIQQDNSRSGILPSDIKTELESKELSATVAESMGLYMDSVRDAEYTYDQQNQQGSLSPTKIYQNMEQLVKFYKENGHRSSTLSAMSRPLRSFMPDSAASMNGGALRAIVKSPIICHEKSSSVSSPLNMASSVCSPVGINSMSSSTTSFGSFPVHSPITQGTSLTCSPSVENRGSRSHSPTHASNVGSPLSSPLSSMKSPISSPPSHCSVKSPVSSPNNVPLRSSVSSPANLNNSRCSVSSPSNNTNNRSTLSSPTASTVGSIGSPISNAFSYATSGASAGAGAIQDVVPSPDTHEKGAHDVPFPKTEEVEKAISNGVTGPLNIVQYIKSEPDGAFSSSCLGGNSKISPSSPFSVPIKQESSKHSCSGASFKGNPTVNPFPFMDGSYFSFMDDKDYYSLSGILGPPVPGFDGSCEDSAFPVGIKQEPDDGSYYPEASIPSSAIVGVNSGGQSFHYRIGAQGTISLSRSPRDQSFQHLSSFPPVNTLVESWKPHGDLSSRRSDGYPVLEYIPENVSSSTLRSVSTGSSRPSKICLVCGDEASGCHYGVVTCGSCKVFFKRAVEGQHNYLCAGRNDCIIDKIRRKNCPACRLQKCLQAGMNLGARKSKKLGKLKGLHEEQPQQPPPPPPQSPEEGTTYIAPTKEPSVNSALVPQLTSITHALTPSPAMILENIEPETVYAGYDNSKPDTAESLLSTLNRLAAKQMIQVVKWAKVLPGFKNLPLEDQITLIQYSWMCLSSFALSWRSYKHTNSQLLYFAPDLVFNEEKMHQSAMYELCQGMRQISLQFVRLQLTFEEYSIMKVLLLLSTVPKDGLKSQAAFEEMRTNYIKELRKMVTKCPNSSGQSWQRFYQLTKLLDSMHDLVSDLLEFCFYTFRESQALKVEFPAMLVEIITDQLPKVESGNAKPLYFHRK
Put plainly: Displacement of [3H]aldosterone from Sprague-Dawley rat MR by liquid scintillation counting.

The subject of assay [3] is Rattus norvegicus. As to the kind of experiment: Recovery of levator ani muscle weight in orchidectomized Sprague-Dawley rat at 3 mg/kg, sc. The assay is classed as functional, organism-based. Set-up: dose 3 mg/kg.
Assay [4] relates to Rattus norvegicus. As to the kind of experiment: Recovery of […] weight in orchidectomized Sprague-Dawley rat at 3 mg/kg, sc relative to control. The assay is classed as functional. Conditions: route subcutaneous.

In general, pIC50 refers to the IC50 on a negative log10 scale, so that one unit is a factor of ten. Higher therefore signals a low IC50. Regarding `CC(C)(CO)[C@H]1Nc2ccc([N+](=O)[O-])cc2[C@H]2C=CC[C@H]21`, the pIC50 at Progesterone receptor was 6.89; in assay [1], < 3.00; at Glucocorticoid receptor, 4.74; in assay [2], 5.20. Also, the result with Rattus norvegicus [3] was Active. For the same molecule, in the assay with Rattus norvegicus [4], the Activity was 50%.
